Measured values published in PubChem BioAssay AID2060511 (Molecular Pharmacology Branch, DTP, NCI, 2025).

Test system: 422866-222-R5-J1-PDC spheroids with HUVEC/MSC, viability
Test: Anticancer human tumor 422866-222-R5-J1-PDC patient-derived pancreatic adenocarcinoma cell line growth inhibition [GQUAD]
Settings: for IC50: curve of first compound; for viability, T/C: stronger effect = lower value
Procedure, shortened: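 Tumor cells were grown as complex spheroids with HUVEC endothelial cells and mesenchymal stem cells as stroma. G-quadruplex stabilizers were combined with targeted agents over half-log dilutions from near the clinical Cmax, or from 10 microM.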

[1] = second compound 0.0316 µM, first compound 0.0316 µM
[2] = second compound 0.0316 µM, first compound 0.1 µM
[3] = second compound 0.0316 µM, first compound 0.316 µM
[4] = second compound 0.0316 µM, first compound 1 µM
[5] = second compound 0.0316 µM, first compound 3.16 µM
[6] = second compound 0.0316 µM, first compound 10 µM
[7] = second compound 0.1 µM, first compound 0.0316 µM
[8] = second compound 0.1 µM, first compound 0.1 µM
[9] = second compound 0.1 µM, first compound 0.316 µM
[10] = second compound 0.1 µM, first compound 1 µM
[11] = second compound 0.1 µM, first compound 3.16 µM
[12] = second compound 0.1 µM, first compound 10 µM
[13] = second compound 0.316 µM, first compound 0.0316 µM
[14] = second compound 0.316 µM, first compound 0.1 µM
[15] = second compound 0.316 µM, first compound 0.316 µM
[16] = second compound 0.316 µM, first compound 1 µM
[17] = second compound 0.316 µM, first compound 3.16 µM
[18] = second compound 0.316 µM, first compound 10 µM
[19] = second compound 1 µM, first compound 0.0316 µM
[20] = second compound 1 µM, first compound 0.1 µM
[21] = second compound 1 µM, first compound 0.316 µM
[22] = second compound 1 µM, first compound 1 µM
[23] = second compound 1 µM, first compound 3.16 µM
[24] = second compound 1 µM, first compound 10 µM
[25] = second compound 3.16 µM, first compound 0.0316 µM
[26] = second compound 3.16 µM, first compound 0.1 µM
[27] = second compound 3.16 µM, first compound 0.316 µM
[28] = second compound 3.16 µM, first compound 1 µM
[29] = second compound 3.16 µM, first compound 3.16 µM
[30] = second compound 3.16 µM, first compound 10 µM
[31] = second compound 10 µM, first compound 0.0316 µM
[32] = second compound 10 µM, first compound 0.1 µM
[33] = second compound 10 µM, first compound 0.316 µM
[34] = second compound 10 µM, first compound 1 µM
[35] = second compound 10 µM, first compound 3.16 µM
[36] = second compound 10 µM, first compound 10 µM
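Note: spheroids exposed to compounds for seven days before reading.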
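Throughout, for viability, T/C: percent viability relative to DMSO vehicle control taken as 100%.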

For `O=c1[nH]cc(F)c(=O)[nH]1` + Cc1[nH]c2ccc(F)cc2c1-c1nc2c3cccnc3c3ncccc3c2[nH]1, the IC50 (second compound 0.0316 µM) was > 10 µM, the IC50 (second compound 0.1 µM) was > 10 µM and the IC50 (second compound 0.316 µM) was > 10 µM. The IC50 (second compound 1 µM) was > 10 µM, the IC50 (second compound 3.16 µM) was > 10 µM and the IC50 (second compound 10 µM) was > 10 µM. The viability, T/C [1] was 95%, the viability, T/C [2] was 101% and the viability, T/C [3] was 101%. The viability, T/C [4] was 93.8%, the viability, T/C [5] was 84.5% and the viability, T/C [6] was 69.1%. The viability, T/C [7] was 97.9%, the viability, T/C [8] was 111% and the viability, T/C [9] was 105%. The viability, T/C [10] was 84.2%, the viability, T/C [11] was 79.9% and the viability, T/C [12] was 60.5%. For the same compound, the viability, T/C [13] was 103%, the viability, T/C [14] was 95.8% and the viability, T/C [15] was 114%. The viability, T/C [16] was 73.2%, the viability, T/C [17] was 82.6% and the viability, T/C [18] was 74%. It also gave a viability, T/C [19] of 101%, a viability, T/C [20] of 105% and a viability, T/C [21] of 101%. It also gave a viability, T/C [22] of 101%, a viability, T/C [23] of 89.6% and a viability, T/C [24] of 72.9%. For the same compound, the viability, T/C [25] was 85.7%, the viability, T/C [26] was 99.3% and the viability, T/C [27] was 95.4%. The viability, T/C [28] was 81.4%, the viability, T/C [29] was 86.9% and the viability, T/C [30] was 64%. The viability, T/C [31] was 74.9%, the viability, T/C [32] was 79.7% and the viability, T/C [33] was 85.3%. For the same compound, the viability, T/C [34] was 72%, the viability, T/C [35] was 75.5% and the viability, T/C [36] was 53.3%.

`Cc1cccc(N(C)C(=O)C2C(O)CCN2c2nc(C)cc(C(F)(F)F)c2C#N)c1` (stereo unspecified) + Cc1cnc(CNC(=O)c2c(=O)c3ccc(N4CCCN(C)CC4)nc3n3c2sc2ccccc23)cn1 was tested, and the IC50 (second compound 0.0316 µM) was > 10 µM, the IC50 (second compound 0.1 µM) was > 10 µM and the IC50 (second compound 0.316 µM) was > 10 µM. The IC50 (second compound 1 µM) was > 10 µM, the IC50 (second compound 3.16 µM) was > 10 µM and the IC50 (second compound 10 µM) was > 10 µM. The viability, T/C [1] was 95%, the viability, T/C [2] was 82.2% and the viability, T/C [3] was 83.9%. The viability, T/C [4] was 92.8%, the viability, T/C [5] was 90.5% and the viability, T/C [6] was 88.7%. For the same compound, the viability, T/C [7] was 95.9%, the viability, T/C [8] was 86.3% and the viability, T/C [9] was 86.8%. For the same compound, the viability, T/C [10] was 83.7%, the viability, T/C [11] was 102% and the viability, T/C [12] was 90.9%. It also gave a viability, T/C [13] of 85.8%, a viability, T/C [14] of 90.5% and a viability, T/C [15] of 98.9%. It also gave a viability, T/C [16] of 83.7%, a viability, T/C [17] of 85.3% and a viability, T/C [18] of 85.5%. It also gave a viability, T/C [19] of 82%, a viability, T/C [20] of 85.8% and a viability, T/C [21] of 86.1%. For the same compound, the viability, T/C [22] was 79.7%, the viability, T/C [23] was 94.1% and the viability, T/C [24] was 91.6%. It also gave a viability, T/C [25] of 73.7%, a viability, T/C [26] of 80% and a viability, T/C [27] of 86.1%. The viability, T/C [28] was 79.7%, the viability, T/C [29] was 96.5% and the viability, T/C [30] was 78.8%. For the same compound, the viability, T/C [31] was 75.3%, the viability, T/C [32] was 75.6% and the viability, T/C [33] was 75%. It also gave a viability, T/C [34] of 86.5%, a viability, T/C [35] of 89% and a viability, T/C [36] of 77.7%.

For `CC(C)n1c(=O)n(C)c2cnc3cc(F)c(-c4ccc(OCCCN5CCCCC5)nc4)cc3c21` + Cc1[nH]c2ccc(F)cc2c1-c1nc2c3cccnc3c3ncccc3c2[nH]1, the IC50 (second compound 0.0316 µM) was > 10 µM, the IC50 (second compound 0.1 µM) was > 10 µM and the IC50 (second compound 0.316 µM) was > 10 µM. For the same compound, the IC50 (second compound 1 µM) was > 10 µM, the IC50 (second compound 3.16 µM) was > 10 µM and the IC50 (second compound 10 µM) was > 10 µM. It also gave a viability, T/C [1] of 86.9%, a viability, T/C [2] of 99.4% and a viability, T/C [3] of 94%. It also gave a viability, T/C [4] of 91.1%, a viability, T/C [5] of 89.2% and a viability, T/C [6] of 52%. For the same compound, the viability, T/C [7] was 99.4%, the viability, T/C [8] was 114% and the viability, T/C [9] was 112%. It also gave a viability, T/C [10] of 83.2%, a viability, T/C [11] of 113% and a viability, T/C [12] of 73.5%. It also gave a viability, T/C [13] of 93.8%, a viability, T/C [14] of 90.6% and a viability, T/C [15] of 102%. The viability, T/C [16] was 92.1%, the viability, T/C [17] was 92.2% and the viability, T/C [18] was 68.5%. The viability, T/C [19] was 95.4%, the viability, T/C [20] was 89.2% and the viability, T/C [21] was 91.3%. It also gave a viability, T/C [22] of 91.9%, a viability, T/C [23] of 117% and a viability, T/C [24] of 64.9%. For the same compound, the viability, T/C [25] was 78.3%, the viability, T/C [26] was 88.2% and the viability, T/C [27] was 105%. For the same compound, the viability, T/C [28] was 94.7%, the viability, T/C [29] was 98% and the viability, T/C [30] was 63.9%. It also gave a viability, T/C [31] of 73%, a viability, T/C [32] of 95.1% and a viability, T/C [33] of 91.7%. For the same compound, the viability, T/C [34] was 80.9%, the viability, T/C [35] was 85.2% and the viability, T/C [36] was 54.5%.
